The values below are quoted from earlier work in patent US20100227030A1, “METHOD FOR THE CONSERVATION OF A PLANT MATERIAL” (priority 2007, published 2010).

The conditions of this data set: at 20° C.

Regarding `OC[C@H]1O[C@H](O[C@H]2O[C@H](CO)[C@@H](O)[C@H](O)[C@H]2O)[C@H](O)[C@@H](O)[C@@H]1O` [trehalose], the Maximal solubility is recorded as 68.9 g/100 g water.
